{"source": "patent US5962636A", "about": "“Peptides capable of modulating inflammatory heart disease” (priority 1998, dated 1999)", "tested_on": "Balb/c mice", "test": "Oligodeoxynucleotides as adjuvants: immunization with M7A-alpha peptide plus oligo; presence and severity of inflammatory heart disease", "assay_type": "in vivo", "conditions": "for Prevalence / Severity: day 21; for immunostimulatory / adjuvant activity: result in words, with M7A-alpha peptide, in the absence of Freund's complete adjuvant; for Severity: score ± SD, scale as in Example 1, adjuvant given with M7A-alpha peptide", "key": {"[1]": {"conditions": "adjuvant given with about 50 micrograms M7A-alpha peptide, days 0 and 7, oligos about 10 nmol with Freund's incomplete adjuvant"}}, "data": [{"sequence": "GTACTGACGTTTACTCTTGG (chemistry not given here) [CpG, oligonucleotide with CpG motif derived from DNA encoding a 60 kDa cysteine rich outer membrane protein from Chlamydia trachomatis]", "values": [{"measurement": "Prevalence", "setting": "about 10 nmol oligo without peptide (Peptide: None)", "result": "0/5"}, {"measurement": "Prevalence", "setting": "[1]", "result": "5/5"}, {"measurement": "immunostimulatory / adjuvant activity", "result": "potent immunostimulator"}, {"measurement": "Severity", "result": "1.2 ± 0.4"}]}, {"sequence": "GTACTGAGCTTTACTCTTGG (chemistry not given here) [non-CpG, counterpart of the CpG oligo not containing the CpG motif, reference compound]", "values": [{"measurement": "Prevalence", "setting": "[1]", "result": "1/5"}, {"measurement": "immunostimulatory / adjuvant activity", "result": "hardly effective as an adjuvant"}, {"measurement": "Severity", "result": "1.0 ± 0.0"}]}]}
